Reference: DBAASP
Converted amounts (≈) assume the structure as drawn. Blank lines part the entries; values can stand above or below the molecule they belong to.

Experiments:
Assay in all cases: ≥ marks a high value that may be exact or a test limit, other limits are often not marked, values filed in µg/mL are converted to µM
[1] = system: Bacillus megaterium Bm11
[2] = system: Staphylococcus capitis 1
[3] = system: Candida albicans ATCC 10231
[4] = system: Escherichia coli ATCC 25922
[5] = system: Yersinia pseudotuberculosis YPIII
[6] = system: Staphylococcus aureus Cowan 1
[7] = system: Bacillus megaterium KCTC 1096
[8] = system: Pseudomonas aeruginosa KCTC 1637
[9] = system: Escherichia coli KCTC 1682
[10] = system: Trichosporon beigelii KCTC 7251
[11] = system: Fusarium oxysporum KCTC 6084
[12] = system: Proteus vulgaris
[13] = system: Staphylococcus aureus KCTC 1621
[14] = system: Bacillus subtilis KCTC 1918
[15] = system: Candida albicans KCTC 7121
[16] = system: Aspergillus flavus KCTC 7375
[17] = system: Pseudomonas aeruginosa Z61
[18] = system: Aeromonas salmonicida 99-1
[19] = system: Escherichia coli UB1005
[20] = system: Salmonella enterica subsp. enterica serovar Typhimurium ATCC 14028s
[21] = system: Staphylococcus epidermidis C621
[22] = system: Pseudomonas aeruginosa K799
[23] = system: Escherichia coli DC2
[24] = system: Aeromonas salmonicida 97-4
[25] = system: Staphylococcus aureus C623
[26] = system: Escherichia coli CGSC 4908
[27] = system: Candida albicans C627
[28] = system: Salmonella enterica serovar typhimurium MS7953s
[29] = system: Cryptococcus neoformans IP960-67
[30] = system: Aeromonas caviae IP67-16T
[31] = system: Nocardia brasiliensis IP16-80
[32] = system: Trichophyton simii IP1063-74
[33] = system: Candida albicans IP884-65
[34] = system: Aspergillus niger IP218-53
[35] = system: Escherichia coli IP76-24
[36] = system: Enterococcus faecalis IP103214
[37] = system: Saccharomyces cerevisiae IP118079
[38] = system: Aspergillus fumigatus IP1025-70
[39] = system: Staphylococcus aureus IP76-25

MIC [1]: 5 µM (≈ 6.84 µg/mL) | MIC [2]: 20 µM (≈ 27.4 µg/mL) | MIC [3]: 10 µM (≈ 13.7 µg/mL) | MIC [4]: > 40 µM | MIC [5]: ≥ 40 µM | MIC [6]: 20 µM (≈ 27.4 µg/mL)
Structure (SMILES): CC[C@H](C)[C@H](NC(=O)CNC(=O)[C@H](CO)NC(=O)[C@H](CC(C)C)NC(=O)[C@H](C)NC(=O)[C@H](CCCN=C(N)N)NC(=O)CNC(=O)[C@@H](NC(=O)[C@H](CC(C)C)NC(=O)[C@@H]1CCCN1C(=O)[C@H](CC(C)C)NC(=O)[C@@H](N)Cc1ccccc1)[C@@H](C)CC)C(=O)N[C@@H](CC(C)C)C(N)=O [FLPLIGRALSGIL]

MIC [7]: 1.56 µM (≈ 3.39 µg/mL) | MIC [8]: 1.56 µM (≈ 3.39 µg/mL) | MIC [9]: 6.25 µM (≈ 13.6 µg/mL) | MIC [10]: ≥ 50 µM | MIC [11]: ≥ 50 µM | MIC [12]: 1.56 µM (≈ 3.39 µg/mL) | MIC [13]: 3.12 µM (≈ 6.79 µg/mL) | MIC [14]: 0.78 µM (≈ 1.69 µg/mL) | MIC [15]: ≥ 50 µM | MIC [16]: ≥ 50 µM
Structure (SMILES): CC[C@H](C)[C@H](NC(=O)[C@H](CCCCN)NC(=O)[C@H](CCCCN)NC(=O)[C@H](Cc1ccccc1)NC(=O)[C@H](CC(C)C)NC(=O)[C@H](CCCCN)NC(=O)[C@@H](N)Cc1c[nH]c2ccccc12)C(=O)N1CCC[C@H]1C(=O)N[C@@H](CCCCN)C(=O)N[C@@H](Cc1ccccc1)C(=O)N[C@@H](CC(C)C)C(=O)N[C@@H](Cc1cnc[nH]1)C(=O)N[C@@H](CC(C)C)C(=O)N[C@@H](C)C(=O)N[C@@H](CCCCN)C(=O)N[C@@H](CCCCN)C(=O)N[C@@H](Cc1ccccc1)C(N)=O [WKLFKKIPKFLHLAKKF]

MIC [17]: 14.7 µM (≈ 32 µg/mL) | MIC [18]: ≥ 58.9 µM | MIC [19]: 29.4 µM (≈ 64 µg/mL) | MIC [20]: 29.4 µM (≈ 64 µg/mL) | MIC [21]: 29.4 µM (≈ 64 µg/mL) | MIC [22]: 29.4 µM (≈ 64 µg/mL) | MIC [23]: 29.4 µM (≈ 64 µg/mL) | MIC [24]: ≥ 58.9 µM | MIC [25]: 29.4 µM (≈ 64 µg/mL) | MIC [26]: 29.4 µM (≈ 64 µg/mL) | MIC [27]: 29.4 µM (≈ 64 µg/mL) | MIC [28]: 29.4 µM (≈ 64 µg/mL)
Structure (SMILES): CC[C@H](C)[C@H](NC(=O)[C@H](CCCNC(=N)N)NC(=O)[C@H](CCCNC(=N)N)NC(=O)[C@H](CC(C)C)NC(=O)[C@@H](N)Cc1c[nH]c2ccccc12)C(=O)NCC(=O)N[C@@H](CCCCN)C(=O)NCC(=O)N[C@H](C(=O)N[C@@H](CCCCN)C(=O)N[C@H](C(=O)N[C@H](C(=O)NCC(=O)NCC(=O)N[C@@H](C)C(=O)N[C@@H](C)C(=O)N[C@@H](CC(C)C)C(=O)N[C@@H](CC(=O)O)C(=O)N[C@@H](Cc1cnc[nH]1)C(=O)N[C@@H](CC(C)C)C(N)=O)[C@@H](C)CC)[C@@H](C)CC)C(C)C [WLRRIGKGVKIIGGAALDHL]

MIC [17]: 1.45 µM (≈ 4 µg/mL) | MIC [18]: 1.45 µM (≈ 4 µg/mL) | MIC [19]: 1.45 µM (≈ 4 µg/mL) | MIC [20]: 23.1 µM (≈ 64 µg/mL) | MIC [21]: 23.1 µM (≈ 64 µg/mL) | MIC [22]: 5.79 µM (≈ 16 µg/mL) | MIC [23]: 0.723 µM (≈ 2 µg/mL) | MIC [24]: 1.45 µM (≈ 4 µg/mL) | MIC [25]: 11.6 µM (≈ 32 µg/mL) | MIC [26]: 1.45 µM (≈ 4 µg/mL) | MIC [27]: 11.6 µM (≈ 32 µg/mL) | MIC [28]: 1.45 µM (≈ 4 µg/mL)
Structure (SMILES): CC[C@H](C)[C@H](NC(=O)[C@H](Cc1cnc[nH]1)NC(=O)[C@H](CCCCN)NC(=O)[C@H](C)NC(=O)[C@H](C)NC(=O)[C@H](Cc1cnc[nH]1)NC(=O)[C@H](CCCNC(=N)N)NC(=O)CNC(=O)[C@H](Cc1cnc[nH]1)NC(=O)[C@H](CCCCN)NC(=O)[C@H](Cc1ccccc1)NC(=O)[C@@H](NC(=O)[C@H](CO)NC(=O)CNC(=O)[C@H](Cc1c[nH]c2ccccc12)NC(=O)CN)[C@@H](C)CC)C(=O)NCC(=O)N[C@@H](Cc1cnc[nH]1)C(=O)N[C@@H](C)C(=O)N[C@@H](C)C(=O)N[C@H](C(=O)N[C@@H](CC(N)=O)C(=O)N[C@@H](Cc1cnc[nH]1)C(=O)N[C@@H](Cc1ccc(O)cc1)C(=O)N[C@@H](CC(C)C)C(C)=O)C(C)C [GWGSIFKHGRHAAKHIGHAAVNHYL]

MIC [29]: 2 µM (≈ 3.45 µg/mL) | MIC [30]: 2 µM (≈ 3.45 µg/mL) | MIC [31]: ≥ 70 µM | MIC [32]: 8 µM (≈ 13.8 µg/mL) | MIC [33]: 8 µM (≈ 13.8 µg/mL) | MIC [34]: 15 µM (≈ 25.9 µg/mL) | MIC [35]: 2 µM (≈ 3.45 µg/mL) | MIC [36]: 2 µM (≈ 3.45 µg/mL) | MIC [37]: 4 µM (≈ 6.91 µg/mL) | MIC [38]: 8 µM (≈ 13.8 µg/mL) | MIC [39]: ≥ 60 µM
Structure (SMILES): CC[C@H](C)[C@H](NC(=O)CNC(=O)[C@H](CCCCN)NC(=O)[C@H](CC(C)C)NC(=O)[C@H](CCSC)NC(=O)[C@H](CC(N)=O)NC(=O)[C@H](CCCCN)NC(=O)[C@H](Cc1c[nH]c2ccccc12)NC(=O)[C@H](CC(C)C)NC(=O)[C@H](C)N)C(=O)NCC(=O)N[C@@H](CCCCN)C(=O)N[C@@H](CC(C)C)C(=O)N[C@@H](C)C(=O)NCC(=O)N[C@@H](CCCCN)C(N)=O [ALWKNMLKGIGKLAGK]

MIC [7]: 1.56 µM (≈ 3.21 µg/mL) | MIC [8]: 1.56 µM (≈ 3.21 µg/mL) | MIC [9]: 12.5 µM (≈ 25.7 µg/mL) | MIC [10]: ≥ 50 µM | MIC [11]: ≥ 100 µM | MIC [12]: 3.12 µM (≈ 6.43 µg/mL) | MIC [13]: 3.12 µM (≈ 6.43 µg/mL) | MIC [14]: 0.78 µM (≈ 1.61 µg/mL) | MIC [15]: ≥ 50 µM | MIC [16]: ≥ 100 µM
Structure (SMILES): CC[C@H](C)[C@H](NC(=O)[C@H](CCCCN)NC(=O)[C@H](CCCCN)NC(=O)[C@H](Cc1ccccc1)NC(=O)[C@H](Cc1c[nH]c2ccccc12)NC(=O)[C@@H](N)CCCCN)C(=O)N1CCC[C@H]1C(=O)N[C@@H](CCCCN)C(=O)N[C@@H](Cc1ccccc1)C(=O)N[C@@H](CC(C)C)C(=O)N[C@@H](Cc1cnc[nH]1)C(=O)N[C@@H](CC(C)C)C(=O)N[C@@H](C)C(=O)N[C@@H](CCCCN)C(=O)N[C@@H](CCCCN)C(=O)N[C@@H](Cc1ccccc1)C(N)=O [KWFKKIPKFLHLAKKF]

MIC [1]: 5 µM (≈ 6.77 µg/mL) | MIC [2]: 20 µM (≈ 27.1 µg/mL) | MIC [3]: 10 µM (≈ 13.5 µg/mL) | MIC [4]: > 40 µM | MIC [5]: ≥ 40 µM | MIC [6]: ≥ 40 µM
Structure (SMILES): CC[C@H](C)[C@H](NC(=O)CNC(=O)[C@H](CO)NC(=O)[C@H](CC(C)C)NC(=O)[C@@H](NC(=O)[C@H](CCCN=C(N)N)NC(=O)CNC(=O)[C@@H](NC(=O)[C@H](C)NC(=O)[C@@H]1CCCN1C(=O)[C@H](CC(C)C)NC(=O)[C@@H](N)Cc1ccccc1)[C@@H](C)CC)C(C)C)C(=O)N[C@@H](CC(C)C)C(N)=O [FLPAIGRVLSGIL]

MIC [29]: 1 µM (≈ 2.04 µg/mL) | MIC [30]: 2 µM (≈ 4.08 µg/mL) | MIC [31]: 30 µM (≈ 61.2 µg/mL) | MIC [32]: 15 µM (≈ 30.6 µg/mL) | MIC [33]: 4 µM (≈ 8.16 µg/mL) | MIC [34]: 15 µM (≈ 30.6 µg/mL) | MIC [35]: 2 µM (≈ 4.08 µg/mL) | MIC [36]: 2 µM (≈ 4.08 µg/mL) | MIC [37]: 4 µM (≈ 8.16 µg/mL) | MIC [38]: 15 µM (≈ 30.6 µg/mL) | MIC [39]: 8 µM (≈ 16.3 µg/mL)
Structure (SMILES): CC[C@H](C)[C@H](NC(=O)CNC(=O)[C@H](CCCCN)NC(=O)[C@H](CC(C)C)NC(=O)[C@H](CCSC)NC(=O)[C@H](CC(N)=O)NC(=O)[C@H](CCCCN)NC(=O)[C@H](Cc1c[nH]c2ccccc12)NC(=O)[C@H](CC(C)C)NC(=O)[C@H](C)N)C(=O)NCC(=O)N[C@@H](CCCCN)C(=O)N[C@@H](CC(C)C)C(=O)N[C@@H](C)C(=O)NCC(=O)N[C@@H](CCCCN)C(=O)N[C@@H](C)C(=O)N[C@@H](C)C(=O)N[C@@H](CC(C)C)C(=O)NCC(N)=O [ALWKNMLKGIGKLAGKAALG]
